Laboratory results: US20210360924A1, “PLANT OR SEED COATING” (University of Southampton, priority 2017, published 2021)
“Also recorded” adds a separate entry of the source.

Assays:
C. elegans TPH-1 = assay: Pharyngeal pumping of C. elegans on food with CPA; type: in vivo
Description: (§1) Experiments were performed on one day old age synchronised worms by picking L4 stage a day before the assay. Due to the translucent nature of the worm, pharyngeal pumping may be scored in the intact animals by counting the movements of the grinder in the terminal bulb: one complete up and down motion is counted as a single pharyngeal pump. The number of pharyngeal pumps was counted on E. coli OP50 in N2, in the mutants tph-1 (mg280), ser-7 (tm1325), cat-1 (ok411) and in mutants with ectopic expression of C. elegans (ce) or G. pallida (ppn) tph-1, ser-7 or cat-1 in all of the neurons (Psnb-1 promoter).
(§2) To test the effects of CPA (4-chloro-DL-phenylalanine methyl ester hydrochloride) on pharyngeal pumping one day old adult C. elegans for N2, tph-1 (mg280) and tph-1-1 (mg280) with ectopic expression of C. elegans (ce) or G. pallida (Gpa) tph-1 were placed onto E. coli OP50 containing CPA on NGM plates and the number of pharyngeal pumps on food per min was scored after 2 and 18 hours.

G. pallida J2s [1] = assay: Root invasion assay on potato hairy root cultures; type: in vivo, Globodera pallida; settings: J2s pre-incubated 24 h with 100 μM compound
Description: J2s of G. pallida were first sterilised with 0.1% chlorhexidine digluconate, 0.5 mg/ml CTAB for 25 mins and washed three times with sterile 0.01% Tween-20. The J2s were then incubated with gentle agitation for 24 hours in water, 100 μM reserpine phosphate, 100 μM methiothepin, 100 μM CPA or 2 mM fluoxetine prior to inoculation of potato hairy root cultures with 25 J2s per infection point and 3 infection points per root system. Hairy root cultures were generated using Agrobacterium rhizogenes R1000 and multiplied. Individual root systems of equivalent size growing on 9 cm plates containing Murashige and Skoog basal medium (Duchefa, Suffolk, UK) with 2% sucrose were selected for inoculation. Nine to 11 replicate plates were used for each treatment or control. Roots were stained with acid fuchsin 13 days after infection and the number of nematodes in each root system counted. Each complete invasion assay was carried out on two separate occasions.

G. pallida TPH-1 = assay: Pharyngeal pumping on food with CPA, tph-1 (mg280) expressing G. pallida tph-1; type: in vivo, Globodera pallida; settings: tph-1 mutant expressing G. pallida tph-1
Description: as §1, §2

G. pallida J2s [2] = assay: G. pallida stylet thrusting assay; type: in vivo, Globodera pallida; settings: for effect on stylet behaviour: concentrations up to 10 mM (data not shown); for stimulation of stylet thrusting by the compound itself: J2s in compound alone; for exposure time at which maximal stylet response was seen / maximally effective concentration for stylet thrusting / effect on S-shaped posture and reduced movement induced by fluoxetine: in vivo; for effect on stylet response to fluoxetine / effect on stylet response to exogenous serotonin: 24 h presoak
Description: Stylet thrusting assays were conducted in 20 mM HEPES buffered ddH2O, with pH adjusted to 7.4 with NaOH. J2s were pipetted into 3 ml of the test solutions in 30 mm petri dishes and the number of stylet thrusts per minute was counted at various time points as stated in figure legends. A single movement of the stylet knob forwards and then backwards to its original position was counted as one stylet thrust. Control assays were conducted in the presence of either 20 mM HEPES alone or 20 mM HEPES with drug vehicle, as indicated in figure legends. All assays were conducted at room temperature (20-22° C.). All drug solutions were made up on the day of use. Each solution contained 0.01% bovine serum albumin to prevent worms from sticking to the Petri dish. Reserpine was dissolved in 100% acetone and then 1 in 200 dilution was made using Hepes buffer (pH 7.4). […] Final concentration 50 μM reserpine.
For experiments in which J2s were pre-treated with reserpine phosphate or CPA, the worms were pre-soaked in the drug solutions for 24 hours.

C. elegans = assay: Pharyngeal pumping of intact C. elegans off food with fluoxetine; type: in vivo, Caenorhabditis elegans
Description: as §1
To test the effects of fluoxetine one day old C. elegans for N2, cat-1 (ok411) and cat-1 (ok411) with ectopic expression of C. elegans (ce) or G. pallida (Gpa) cat-1 were placed onto unseeded NGM plates containing fluoxetine and the number of pharyngeal pumps per min was scored after 1 h and 18 h.

C. elegans SER-7 = target: T1, C. elegans SER-7 (Caenorhabditis elegans, UniProt Q22895); assay: Cut head pharyngeal pumping assay
T1 sequence (Q22895 1-435): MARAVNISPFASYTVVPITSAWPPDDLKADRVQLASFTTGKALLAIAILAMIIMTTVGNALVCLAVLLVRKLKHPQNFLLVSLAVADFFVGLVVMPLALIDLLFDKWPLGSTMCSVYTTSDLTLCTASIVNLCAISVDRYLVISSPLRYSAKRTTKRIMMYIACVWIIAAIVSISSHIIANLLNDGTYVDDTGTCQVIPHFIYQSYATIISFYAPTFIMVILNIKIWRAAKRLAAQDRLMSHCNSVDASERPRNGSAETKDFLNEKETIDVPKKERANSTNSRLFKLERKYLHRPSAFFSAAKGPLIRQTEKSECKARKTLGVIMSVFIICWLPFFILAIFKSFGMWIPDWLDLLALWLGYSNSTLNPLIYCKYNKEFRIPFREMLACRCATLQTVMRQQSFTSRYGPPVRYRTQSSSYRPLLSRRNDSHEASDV
Description: Additionally, an intact pharynx containing a terminal bulb was dissected from the rest of the worm with a razor blade. The pharyngeal preparation was placed into 3 ml of Dent's saline (with 0.1% BSA and the drugs 5-HT or methiothepin) in a 25 mm Petri dish. Pharyngeal pumps were scored visually, as for the intact worms, for 1 min. For controls, the pharyngeal pumping was scored in Dent's saline (0.1% BSA) without drugs with appropriate vehicle controls.

C. elegans MOD-1 = assay: Thrashing paralysis assay (serotonin-induced paralysis), wild type; type: in vivo, Caenorhabditis elegans; settings: wild type worms; 10 μM methiothepin; 33 mM serotonin
Description: (§3) For the methiothepin treatment group, 10 μM methiothepin was included in the wells of the microtitre plate. Wild type (N2), mod-1 (ok103), and the transgenic strains expressing gpa-mod-1 in mod-1 (ok103) were tested.

G. pallida = assay: Hatching of J2s from cysts/eggs; set-up: species or system Globodera pallida; settings: in vivo
G. pallida MOD-1 = assay: Thrashing paralysis assay, mod-1 (ok103) expressing G. pallida mod-1; type: in vivo, Globodera pallida; settings: worms expressing G. pallida mod-1; 10 μM methiothepin; 33 mM serotonin
Description: as §3

G. pallida SER-7 = G. pallida SER-7 (Globodera pallida, UniProt A0A183BS20, DEL280-286/G462A/H333Q/S454N/S6T/Y334H); assay: Cut head pharyngeal pumping assay, ser-7 (tm1325) expressing Gpa-ser-7; settings: 100 nM; transgenics expressing G. pallida ser-7; 100 μM serotonin
Chain of G. pallida SER-7 (A0A183BS20 whole entry, stated change not applied): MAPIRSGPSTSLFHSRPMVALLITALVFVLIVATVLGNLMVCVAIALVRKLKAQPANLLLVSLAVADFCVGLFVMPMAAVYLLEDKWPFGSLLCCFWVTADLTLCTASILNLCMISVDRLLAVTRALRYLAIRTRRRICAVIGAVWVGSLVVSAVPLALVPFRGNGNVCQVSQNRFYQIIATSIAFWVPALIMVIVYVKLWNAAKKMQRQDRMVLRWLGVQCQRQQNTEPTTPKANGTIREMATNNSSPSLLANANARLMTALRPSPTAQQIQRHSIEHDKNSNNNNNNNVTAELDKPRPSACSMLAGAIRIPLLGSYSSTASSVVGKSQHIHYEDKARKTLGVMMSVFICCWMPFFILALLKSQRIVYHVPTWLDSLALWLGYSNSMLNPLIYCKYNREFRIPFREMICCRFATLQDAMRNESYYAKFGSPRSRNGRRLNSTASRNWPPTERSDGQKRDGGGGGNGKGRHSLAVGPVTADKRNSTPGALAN

G. pallida J2s [3] = assay: G. pallida dispersal (motility) assay on agar arena; type: in vivo, Globodera pallida; settings: pre-incubation with 50 μM for 18 h
Description: Dispersal assays were performed on 5 cm plates filled with 10 ml of 2% agarose. […] For the reserpine assays worms were pre-soaked in the compound for 18 h. On the day of the assay 100 μl of potato root diffusate (PRD), ddH2O or drug solvents were spread onto the plates and the plates were sealed with the parafilm. The grid with six equal concentric circles was placed under the assay plates and the centre was marked with a dot. Around 50-100 G. pallida J2s or C. elegans L2 s were pipetted with 5 μl of ddH2O onto the centre (origin), the plate was re-sealed and the total number of worms was counted as soon as the liquid had absorbed. The number of J2s in each concentric circle was counted after 1, 2 and 24 hours.

COC(=O)C(N)Cc1ccc(Cl)cc1.Cl (racemic) [CPA, 4-chloro-DL-phenylalanine methyl ester hydrochloride]
inhibition of pharyngeal pumping (C. elegans TPH-1; tph-1 mutant): did not cause any further reduction
ability to inhibit pharyngeal pumping (C. elegans TPH-1; tph-1 mutant expressing C. elegans tph-1): restored
inhibition of pharyngeal pumping (C. elegans TPH-1; wild type C. elegans, CPA 10 mM): significantly inhibited
number of nematodes present in the roots 13 days after inoculation (root invasion) (G. pallida J2s [1]): significantly reduced
ability to inhibit pharyngeal pumping (G. pallida TPH-1): restored
stylet thrusting in response to fluoxetine (G. pallida J2s [2]; 10 mM CPA overnight, 2 mM fluoxetine 30 min): reduced stylet thrusting
stylet thrusting in response to serotonin (G. pallida J2s [2]; 10 mM CPA overnight, 10 mM serotonin 30 min): maintained their response

NCCc1ccc(O)c(O)c1 [Dopamine]
effect on stylet behaviour (G. pallida J2s [2]): no effect

CNCCC(Oc1ccc(C(F)(F)F)cc1)c1ccccc1 (stereo not drawn) [fluoxetine]
stimulation of pharyngeal pumping in the absence of food (C. elegans; 1 mM and 2 mM, or longer exposure at 500 μM): did not cause a stimulation
stimulation of pharyngeal pumping in the absence of food (C. elegans; C. elegans cat-1 mutant): not observed
exposure time of maximal stimulation of pharyngeal pumping (C. elegans; absence of food): 1 h
low dose stimulation of pharyngeal pumping (C. elegans; cat-1 mutant expressing ppn-cat-1 (G. pallida)): restored
low dose stimulation of pharyngeal pumping (C. elegans; cat-1 mutant expressing wild-type C. elegans cat-1): restored
stimulation of pharyngeal pumping in the absence of food (C. elegans; wild type, 5 to 500 μM): concentration-dependent
stimulation of stylet thrusting by the compound itself (G. pallida J2s [2]): time-dependent and concentration-dependent stimulation; also recorded: stimulatory effects
exposure time at which maximal stylet response was seen (G. pallida J2s [2]): 30 min
maximally effective concentration for stylet thrusting (G. pallida J2s [2]): 2 mM
shape of stylet concentration response curve (G. pallida J2s [2]; response after 1 h): bell-shaped

CN(C)CCCN1c2ccccc2CCc2ccccc21 [imipramine]
stimulation of stylet thrusting by the compound itself (G. pallida J2s [2]): stimulatory effects

CSc1ccc2c(c1)C(N1CCN(C)CC1)Cc1ccccc1S2 (stereo not drawn) [methiothepin]
inhibition of stimulatory effect of serotonin on pumping (C. elegans SER-7; 100 nM, transgenics expressing C. elegans ser-7, 100 μM serotonin): around 50%
effect on mod-1 dependent serotonin-induced paralysis (C. elegans MOD-1): blocked
emergence of J2s from eggs (hatching) (G. pallida): potently inhibited
effect on mod-1 dependent serotonin-induced paralysis (G. pallida MOD-1): blocked
number of nematodes present in the roots 13 days after inoculation (root invasion) (G. pallida J2s [1]): blocked
inhibition of stimulatory effect of serotonin on pumping (G. pallida SER-7): around 50%
antagonism of serotonin-induced stylet thrusting (G. pallida J2s [2]; G. pallida J2s): potent antagonist
effect on S-shaped posture and reduced movement induced by fluoxetine (G. pallida J2s [2]): blocked

NCC(O)c1ccc(O)cc1 (stereo not drawn) [octopamine]
effect on stylet behaviour (G. pallida J2s [2]): no effect

COC(=O)[C@H]1[C@H]2C[C@@H]3c4[nH]c5cc(OC)ccc5c4CCN3C[C@H]2C[C@@H](OC(=O)c2cc(OC)c(OC)c(OC)c2)[C@@H]1OC [reserpine, (3β,16β,17α,18β,20α)-11,17-Dimethoxy-18-[(3,4,5-trimethoxybenzoyl)oxy]yohimban-16-carboxylic acid methyl ester]
number of nematodes present in the roots 13 days after inoculation (root invasion) (G. pallida J2s [1]): significantly decreased
block of stimulatory effect of fluoxetine on stylet (G. pallida J2s [2]; 5 μM, 24 h soak, 2 mM fluoxetine): near-complete block
recovery of fluoxetine-induced stylet response after washing (G. pallida J2s [2]; 50 μM for 24 h, then water wash up to 22 hours): No recovery
block of stimulatory effect of fluoxetine on stylet (G. pallida J2s [2]; 50 μM, 24 h soak, 2 mM fluoxetine): near-complete block
exposure time at which reduction of fluoxetine-stimulated stylet activity was evident (G. pallida J2s [2]; 50 μM, 2 mM fluoxetine): 4 h
exposure time to full block of fluoxetine-stimulated stylet activity (G. pallida J2s [2]; 50 μM, 2 mM fluoxetine): 8 h
exposure time to full inhibition of fluoxetine-stimulated stylet activity (G. pallida J2s [2]; 50 μM, 2 mM fluoxetine 30 mins (FIG. 14B)): 8 h
effect on stylet response to fluoxetine (G. pallida J2s [2]; 2 mM fluoxetine 30 min): concentration-dependent inhibition
effect on stylet response to fluoxetine (G. pallida J2s [2]; 2 mM fluoxetine 30 min, listed as Reserpine): potently blocked
effect on stylet response to exogenous serotonin (G. pallida J2s [2]; 10 mM serotonin 30 min): no effect
effect on stylet response to exogenous serotonin (G. pallida J2s [2]; 10 mM serotonin 30 min, listed as Reserpine): but not the response to serotonin
lowest concentration giving significant reduction of fluoxetine-induced stylet activity (G. pallida J2s [2]; 24 h soak, 2 mM fluoxetine 30 min): 5 nM
effect on S-shaped posture and reduced movement induced by fluoxetine (G. pallida J2s [2]): blocked
independent stimulatory effect on stylet activity (G. pallida J2s [2]; reserpine alone): no independent stimulatory effect
dispersal from origin of agar arena (motility) (G. pallida J2s [3]): significant reduction

NCCc1c[nH]c2ccc(O)cc12 [serotonin, 5-hydroxytryptamine]
EC50 (C. elegans SER-7; EC50, activation of pharyngeal pumping, transgenic psnb-1::Ce-ser-7a, cut head, 95% confidence 457 nM to 1.34 μM): 782 nM
EC50 (C. elegans SER-7; EC50, increase in pharyngeal pumping, wild type worms, cut head, 95% confidence 164 nM to 304 nM): 223 nM
pharyngeal pumping response (C. elegans SER-7; ser-7 (tm1325) mutants, cut head, up to 100 μM): did not respond
stimulation of stylet thrusting by the compound itself (G. pallida J2s [2]): time-dependent and concentration-dependent stimulation
exposure time at which maximal stylet response was seen (G. pallida J2s [2]): 30 min
maximally effective concentration for stylet thrusting (G. pallida J2s [2]): 10 mM
concentration above which stylet concentration-response curve reached maximum plateau (G. pallida J2s [2]; response after 1 h): above 2 mM

NCCc1ccc(O)cc1 [tyramine]
effect on stylet behaviour (G. pallida J2s [2]): no effect
